Activity calls are given as the source filed them. No cut-off for these calls is given here.
Assays:
[1] = target: Sodium-dependent serotonin transporter (Rattus norvegicus, UniProt P31652); experiment: Inhibition of serotonin transporter expressed in rat brain tissue assessed as inhibition of [3H]-5-hydroxytryptamine reuptake measured after 15 mins by scintillation counting analysis; assay type: tissue-based
[2] = Metabolic stability in rat liver microsomes assessed as half life incubated for 60 mins by LC-MS/MS analysis; assay type: ADME, Microsome
[3] = Metabolic stability in rat liver microsomes assessed as clearance incubated for 60 mins by LC-MS/MS analysis; assay type: ADME, Microsome; settings: read-out: CLH
[4] = Cmax in Sprague-Dawley rat at 2 mg/kg, iv measured by LC-MS/MS analysis; assay type: ADME, organism-based; parameters: route intravenous, dose 2 mg/kg; settings: in vivo
[5] = Cmax in Sprague-Dawley rat at 5 mg/kg, po measured by LC-MS/MS analysis; assay type: ADME, organism-based; parameters: route oral, dose 5 mg/kg; settings: in vivo
[6] = AUC (0 to t) in Sprague-Dawley rat at 2 mg/kg, iv measured by LC-MS/MS analysis; assay type: ADME, organism-based; parameters: dose 2 mg/kg; settings: in vivo
[7] = AUC (0 to t) in Sprague-Dawley rat at 5 mg/kg, po measured by LC-MS/MS analysis; assay type: ADME, organism-based; parameters: dose 5 mg/kg; settings: in vivo
[8] = Half life in Sprague-Dawley rat at 2 mg/kg, iv measured by LC-MS/MS analysis; assay type: ADME, organism-based; settings: in vivo
[9] = Half life in Sprague-Dawley rat at 5 mg/kg, po measured by LC-MS/MS analysis; assay type: ADME, organism-based; settings: in vivo
[10] = Volume of distribution in steady state in Sprague-Dawley rat at 2 mg/kg, iv measured by LC-MS/MS analysis; assay type: ADME, organism-based; settings: in vivo, read-out: Vdss
[11] = Clearance in Sprague-Dawley rat at 2 mg/kg, iv measured by LC-MS/MS analysis; assay type: ADME, organism-based; settings: in vivo
[12] = Oral bioavailability in Sprague-Dawley rat at 5 mg/kg measured by LC-MS/MS analysis; assay type: ADME, organism-based; settings: in vivo
[13] = target: T1, 5-hydroxytryptamine receptor 1A (Homo sapiens, UniProt P08908); experiment: Inhibition of 5-HT1a (unknown origin)
T1 sequence (P08908 whole entry): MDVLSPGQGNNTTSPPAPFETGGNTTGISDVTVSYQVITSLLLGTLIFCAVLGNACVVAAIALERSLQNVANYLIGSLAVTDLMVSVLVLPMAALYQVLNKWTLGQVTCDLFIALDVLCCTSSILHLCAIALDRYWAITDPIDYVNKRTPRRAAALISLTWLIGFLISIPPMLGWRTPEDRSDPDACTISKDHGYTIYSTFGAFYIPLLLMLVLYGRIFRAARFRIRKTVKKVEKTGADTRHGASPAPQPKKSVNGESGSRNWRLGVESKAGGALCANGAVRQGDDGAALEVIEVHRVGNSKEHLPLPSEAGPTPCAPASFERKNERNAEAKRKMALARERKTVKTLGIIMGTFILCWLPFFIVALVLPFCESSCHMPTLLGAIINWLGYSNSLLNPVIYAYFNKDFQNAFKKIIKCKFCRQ

[14] = target: 5-hydroxytryptamine receptor 2A (Homo sapiens, UniProt P28223); experiment: Inhibition of 5-HT2a (unknown origin)
[15] = target: T2, 5-hydroxytryptamine receptor 2C (Homo sapiens, UniProt P28335); experiment: Inhibition of 5-HT2c (unknown origin)
T2 sequence (P28335 whole entry): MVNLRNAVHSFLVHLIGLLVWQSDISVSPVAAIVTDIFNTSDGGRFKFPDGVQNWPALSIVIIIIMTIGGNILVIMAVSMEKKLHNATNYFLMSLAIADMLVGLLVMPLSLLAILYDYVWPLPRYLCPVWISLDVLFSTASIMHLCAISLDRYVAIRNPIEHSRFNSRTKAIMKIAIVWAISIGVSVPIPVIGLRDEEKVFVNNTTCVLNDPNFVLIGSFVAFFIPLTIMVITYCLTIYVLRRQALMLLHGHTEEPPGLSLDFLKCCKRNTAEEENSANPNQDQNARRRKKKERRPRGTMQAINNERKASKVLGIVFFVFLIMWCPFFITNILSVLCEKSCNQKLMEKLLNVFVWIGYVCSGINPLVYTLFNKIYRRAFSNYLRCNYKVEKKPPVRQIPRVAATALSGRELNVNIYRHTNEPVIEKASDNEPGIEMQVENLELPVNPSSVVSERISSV

[16] = target: T3, 5-hydroxytryptamine receptor 3A (Homo sapiens, UniProt P46098); experiment: Inhibition of 5-HT3 (unknown origin)
T3 sequence (P46098 whole entry): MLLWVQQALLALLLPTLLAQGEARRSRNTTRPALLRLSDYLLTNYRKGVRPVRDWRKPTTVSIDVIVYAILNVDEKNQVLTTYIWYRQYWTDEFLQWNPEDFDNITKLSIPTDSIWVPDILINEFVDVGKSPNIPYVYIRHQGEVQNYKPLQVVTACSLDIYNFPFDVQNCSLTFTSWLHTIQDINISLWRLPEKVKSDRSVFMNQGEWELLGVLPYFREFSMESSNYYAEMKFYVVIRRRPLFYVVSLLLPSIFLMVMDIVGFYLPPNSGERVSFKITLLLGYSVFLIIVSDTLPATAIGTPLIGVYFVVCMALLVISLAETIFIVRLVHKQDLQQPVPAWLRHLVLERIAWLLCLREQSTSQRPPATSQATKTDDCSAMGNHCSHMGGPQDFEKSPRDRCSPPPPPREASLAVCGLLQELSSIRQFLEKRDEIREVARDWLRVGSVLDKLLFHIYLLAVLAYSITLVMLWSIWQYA

[17] = target: Sodium-dependent serotonin transporter (Rattus norvegicus) (UniProt P31652); experiment: Antagonist activity at SERT in Sprague-Dawley rat hypothalamus assessed as PCA induced serotonin depletion at 10 mg/kg, iv measured after 30 mins by LC-MS/MS analysis; assay type: organism-based; settings: filed as antagonist
Rattus norvegicus [18] = experiment: Antidepressant-like activity in rat assessed as reduction in immobility time at 3 ml/kg, sc measured after 60 mins by Forced swimming test; assay type: functional, organism-based
Rattus norvegicus [19] = experiment: Antidepressant-like activity in rat assessed as reduction in immobility time at 10 ml/kg, sc measured after 60 mins by Forced swimming test; assay type: functional, organism-based

Sequence of 5-hydroxytryptamine receptor 2A (P28223 whole entry): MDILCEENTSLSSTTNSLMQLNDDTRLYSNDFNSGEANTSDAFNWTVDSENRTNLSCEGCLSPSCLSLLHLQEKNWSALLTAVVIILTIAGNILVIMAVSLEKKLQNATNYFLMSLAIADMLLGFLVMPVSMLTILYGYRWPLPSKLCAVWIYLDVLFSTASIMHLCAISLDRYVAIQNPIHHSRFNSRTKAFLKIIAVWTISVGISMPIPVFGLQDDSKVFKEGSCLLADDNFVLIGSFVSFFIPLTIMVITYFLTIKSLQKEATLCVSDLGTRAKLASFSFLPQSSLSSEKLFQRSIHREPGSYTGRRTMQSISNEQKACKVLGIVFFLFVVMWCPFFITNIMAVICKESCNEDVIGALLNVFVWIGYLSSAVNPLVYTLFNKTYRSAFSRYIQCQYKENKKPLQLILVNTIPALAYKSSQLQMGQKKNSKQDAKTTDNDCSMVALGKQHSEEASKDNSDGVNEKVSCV
Sequence of Sodium-dependent serotonin transporter (P31652 whole entry): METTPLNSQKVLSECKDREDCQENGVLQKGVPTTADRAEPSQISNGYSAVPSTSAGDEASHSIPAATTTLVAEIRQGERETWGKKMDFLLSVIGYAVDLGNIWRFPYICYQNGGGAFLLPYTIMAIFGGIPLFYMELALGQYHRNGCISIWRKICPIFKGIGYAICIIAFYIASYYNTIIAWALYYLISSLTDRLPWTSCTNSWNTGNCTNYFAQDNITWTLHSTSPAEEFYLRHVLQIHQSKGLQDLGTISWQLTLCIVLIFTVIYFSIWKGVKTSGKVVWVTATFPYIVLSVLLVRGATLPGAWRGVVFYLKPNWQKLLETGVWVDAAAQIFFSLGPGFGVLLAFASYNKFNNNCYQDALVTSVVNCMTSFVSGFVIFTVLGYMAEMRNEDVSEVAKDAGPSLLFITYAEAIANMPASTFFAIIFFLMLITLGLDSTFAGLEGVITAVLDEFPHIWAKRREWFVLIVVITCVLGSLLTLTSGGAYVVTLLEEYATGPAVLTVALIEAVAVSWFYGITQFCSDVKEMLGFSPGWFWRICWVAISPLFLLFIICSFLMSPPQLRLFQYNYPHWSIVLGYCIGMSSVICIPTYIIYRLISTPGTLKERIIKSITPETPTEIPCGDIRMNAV
Sequence of Sodium-dependent serotonin transporter (Rattus norvegicus) (P31652 whole entry): as above

Compound: N#Cc1ccc2[nH]cc(CCCCN3CCN(c4ccc(-n5ccc6ccccc6c5=O)cc4)CC3)c2c1
- IC50 [1]: 4.31 nM

Compound: Cc1ccn(-c2ccc(N3CCN(CCCc4c[nH]c5ccc(C#N)cc45)CC3)cc2)c(=O)c1
- IC50 [1]: 2.02 nM

Compound: COc1ccn(-c2ccc(N3CCN(CCCc4c[nH]c5ccc(C#N)cc45)CC3)cc2)c(=O)c1
- IC50 [1]: 4.58 nM

Compound: N#Cc1ccc2[nH]cc(CCCN3CCN(c4ccc(-n5cc(F)ccc5=O)cc4)CC3)c2c1
- IC50 [1]: 2.22 nM

Compound: N#Cc1ccc2[nH]cc(CCCCN3CCN(c4ccc(-n5ccc6occc6c5=O)cc4)CC3)c2c1
- half-life [2]: 312 min
- CLint scaled [3]: 4.4 mL/min/kg
- Cmax [4]: 694 ng/mL
- Cmax [5]: 33.6 ng/mL
- AUC(0-t) [6]: 559 ng·h/mL
- AUC(0-t) [7]: 77 ng·h/mL
- half-life [8]: 75.6 min
- half-life [9]: 136 min
- Vd [10]: 3.21 L/kg
- clearance [11]: 59.3 mL/min/kg
- bioavailability [12]: 5.8%
- IC50 [13]: 0.14 nM
- IC50 [14]: > 10 µM
- IC50 [15]: > 10 µM
- IC50 [16]: > 10 µM

Compound: N#Cc1ccc2[nH]cc(CCCCCN3CCN(c4ccc(-n5cc(F)ccc5=O)cc4)CC3)c2c1
- IC50 [1]: 6 nM

Compound: N#Cc1ccc2[nH]cc(CCCN3CCN(c4ccc(-n5ccc6ncccc6c5=O)cc4)CC3)c2c1
- half-life [2]: 4.41 min
- CLint scaled [3]: 315 mL/min/kg
- IC50 [13]: 1.7 nM
- IC50 [14]: > 10 µM
- IC50 [15]: > 10 µM
- IC50 [16]: > 10 µM

Compound: N#Cc1ccc2[nH]cc(CCCCCN3CCN(c4ccc(-n5ccccc5=O)cc4)CC3)c2c1
- IC50 [1]: 1.35 nM

Compound: N#Cc1ccc2[nH]cc(CCCCN3CCN(c4ccc(-n5cc(F)ccc5=O)cc4)CC3)c2c1
- IC50 [1]: 3.75 nM

Compound: N#Cc1ccc2[nH]cc(CCCN3CCN(c4ccc(-n5ccc6ccccc6c5=O)cc4)CC3)c2c1
- IC50 [1]: 10.2 nM

Compound: N#Cc1ccc2[nH]cc(CCCCN3CCN(c4ccc5oc(C(N)=O)cc5c4)CC3)c2c1 [VILAZODONE]
- half-life [2]: 17.9 min
- CLint scaled [3]: 77.3 mL/min/kg

Compound: N#Cc1ccc2[nH]cc(CCCCN3CCN(c4ccc(-n5ccc6ncccc6c5=O)cc4)CC3)c2c1
- half-life [2]: 114 min
- CLint scaled [3]: 12.2 mL/min/kg
- Cmax [4]: 831 ng/mL
- Cmax [5]: 70.5 ng/mL
- AUC(0-t) [6]: 823 ng·h/mL
- AUC(0-t) [7]: 189 ng·h/mL
- half-life [8]: 60.6 min
- half-life [9]: 49.2 min
- Vd [10]: 2.47 L/kg
- clearance [11]: 40.8 mL/min/kg
- bioavailability [12]: 9.19%
- Activity [17]: Active
- Activity (Rattus norvegicus [18]): Active
- Activity (Rattus norvegicus [19]): Active
- IC50 [13]: 0.5 nM
- IC50 [14]: > 10 µM
- IC50 [15]: > 10 µM
- IC50 [16]: > 10 µM

Compound: Cc1ccn(-c2ccc(N3CCN(CCc4c[nH]c5ccc(C#N)cc45)CC3)cc2)c(=O)c1
- IC50 [1]: 7.57 nM

Compound: N#Cc1ccc2[nH]cc(CCN3CCN(c4ccc(-n5cc(F)ccc5=O)cc4)CC3)c2c1
- IC50 [1]: 5.51 nM

Compound: N#Cc1ccc2[nH]cc(CCCCN3CCN(c4ccc(-n5ccccc5=O)cc4)CC3)c2c1
- IC50 [1]: 1.6 nM

Compound: Cc1ccn(-c2ccc(N3CCN(CCCCc4c[nH]c5ccc(C#N)cc45)CC3)cc2)c(=O)c1
- IC50 [1]: 2.03 nM

Reference: ChEMBL document CHEMBL4840307, “Synthesis and biological evaluation of 1-(4-(piperazin-1-yl)phenyl)pyridin-2(1H)-one derivatives as potential SSRIs” (Eur J Med Chem, 2021)
